Holding throughout (assay): NCI single dose screening (10 µM)
Format in all cases: cell-based

The subject of one experiment is CCRF-CEM. Conditions: Homo sapiens, read-out: GI% (cell growth inhibition percentage).
In a further experiment the test system is HL-60(TB). As to conditions: Homo sapiens.
Another experiment deals with SW-620. Conditions: Homo sapiens.
Another experiment deals with HT-29. As to conditions: Homo sapiens.
The next experiment has as its system KM12. As to conditions: Homo sapiens.
The subject of another experiment is SF-539. Conditions: Homo sapiens.
The test system of another experiment is SF-268. Conditions: Homo sapiens.
The subject of another experiment is SF-295. Conditions: Homo sapiens.
The next experiment has as its system SNB-19. Conditions: Homo sapiens.
The next experiment concerns MALME-3M. As to conditions: Homo sapiens, read-out: GI% (cell growth inhibition percentage).
The test system of another experiment is UACC-257. As to conditions: Homo sapiens.
The next experiment concerns UACC-62. Conditions: Homo sapiens.
The test system of the next experiment is SK-MEL-2. Conditions: Homo sapiens.
The subject of another experiment is NCI/ADR-RES. As to conditions: Homo sapiens, read-out: GI% (cell growth inhibition percentage).
A further experiment has as its system IGROV1. Conditions: Homo sapiens.
In a further experiment the test system is OVCAR-3. Conditions: Homo sapiens.
Another experiment relates to OVCAR-8. Conditions: Homo sapiens.
A further experiment concerns OVCAR-5. As to conditions: Homo sapiens.
A further experiment deals with UO-31. As to conditions: Homo sapiens.
The next experiment concerns TK-10. As to conditions: Homo sapiens.
The test system of the next experiment is HS 578 T. As to conditions: Homo sapiens, read-out: GI% (cell growth inhibition percentage).
Another experiment deals with T-47D. Conditions: Homo sapiens, T47D, read-out: GI% (cell growth inhibition percentage).
A further experiment relates to RPMI-8226. As to conditions: Homo sapiens; RPMI-8226, Leukaemia, single dose 10^−5 M; read-out: GI% (cell growth inhibition percentage).
Where [1] appears, read: HL-60, read-out: GI% (cell growth inhibition percentage).
[2] abbreviates: SW-620, read-out: GI% (cell growth inhibition percentage).
The mark [3] stands for this setting: HT-29, read-out: GI% (cell growth inhibition percentage).
[4] abbreviates: KM12, read-out: GI% (cell growth inhibition percentage).
Setting [5] is: SF-539, read-out: GI% (cell growth inhibition percentage).
Setting [6] is: SF-268, read-out: GI% (cell growth inhibition percentage).
[7] abbreviates: SF-295, read-out: GI% (cell growth inhibition percentage).
Setting [8] is: SNB-19, read-out: GI% (cell growth inhibition percentage).
[9] abbreviates: UACC-257, read-out: GI% (cell growth inhibition percentage).
[10] abbreviates: UACC-62, read-out: GI% (cell growth inhibition percentage).
[11] abbreviates: SK-MEL-2, read-out: GI% (cell growth inhibition percentage).
The mark [12] stands for this setting: IGROV-1, read-out: GI% (cell growth inhibition percentage).
The mark [13] stands for this setting: OVCAR-3, read-out: GI% (cell growth inhibition percentage).
[14] abbreviates: OVCAR-8, read-out: GI% (cell growth inhibition percentage).
The mark [15] stands for this setting: OVCAR-5, read-out: GI% (cell growth inhibition percentage).
The mark [16] stands for this setting: UO-31, read-out: GI% (cell growth inhibition percentage).
Where [17] appears, read: TK-10, read-out: GI% (cell growth inhibition percentage).
[18] abbreviates: HL-60(TB), Leukaemia, single dose 10^−5 M, read-out: GI% (cell growth inhibition percentage).
Where [19] appears, read: SW-620, Colon cancer, single dose 10^−5 M, read-out: GI% (cell growth inhibition percentage).
[20] abbreviates: HT-29, Colon cancer, single dose 10^−5 M, read-out: GI% (cell growth inhibition percentage).
The mark [21] stands for this setting: KM12, Colon cancer, single dose 10^−5 M, read-out: GI% (cell growth inhibition percentage).
The mark [22] stands for this setting: SF-539, CNS cancer, single dose 10^−5 M, read-out: GI% (cell growth inhibition percentage).
Where [23] appears, read: SF-268, CNS cancer, single dose 10^−5 M, read-out: GI% (cell growth inhibition percentage).
The mark [24] stands for this setting: SF-295, CNS cancer, single dose 10^−5 M, read-out: GI% (cell growth inhibition percentage).
Setting [25] is: SNB-19, CNS cancer, single dose 10^−5 M, read-out: GI% (cell growth inhibition percentage).
Where [26] appears, read: MALME-3M, Melanoma, single dose 10^−5 M.
Setting [27] is: UACC-257, Melanoma, single dose 10^−5 M, read-out: GI% (cell growth inhibition percentage).
Setting [28] is: UACC-62, Melanoma, single dose 10^−5 M, read-out: GI% (cell growth inhibition percentage).
The mark [29] stands for this setting: SK-MEL-2, Melanoma, single dose 10^−5 M, read-out: GI% (cell growth inhibition percentage).
The mark [30] stands for this setting: Ovarian cancer, single dose 10^−5 M.
Where [31] appears, read: IGROV-1, IGROV1, Ovarian cancer, single dose 10^−5 M, read-out: GI% (cell growth inhibition percentage).
The mark [32] stands for this setting: OVCAR-3, Ovarian cancer, single dose 10^−5 M, read-out: GI% (cell growth inhibition percentage).
Setting [33] is: OVCAR-8, Ovarian cancer, single dose 10^−5 M, read-out: GI% (cell growth inhibition percentage).
Where [34] appears, read: OVCAR-5, Ovarian cancer, single dose 10^−5 M, read-out: GI% (cell growth inhibition percentage).
Setting [35] is: UO-31, Renal cancer, single dose 10^−5 M, read-out: GI% (cell growth inhibition percentage).
Where [36] appears, read: TK-10, Renal cancer, single dose 10^−5 M, read-out: GI% (cell growth inhibition percentage).
Where [37] appears, read: HS 578 T, Breast cancer, single dose 10^−5 M.
Where [38] appears, read: T-47D, Breast cancer, single dose 10^−5 M.

Read-outs that look alike come from different tables or passages of the source. Some results are limits rather than exact numbers.

In the case of `CCCN1C(=O)/C(=N\NC(=O)c2oc3ccccc3c2C)c2cc(Br)ccc21` [Compound 7g], the inhibition at 10 µM with CCRF-CEM, with HL-60(TB) (setting [1]), in the experiment with SW-620 (setting [2]), in the experiment with HT-29 (setting [3]), with KM12 (setting [4]) and in the experiment on SF-539 (setting [5]) was under 10% throughout. For the same compound, the inhibition at 10 µM with SF-268 (setting [6]) is under 10%; with SF-295 (setting [7]), under 10%; in the experiment on SNB-19 (setting [8]), under 10%; in the experiment with MALME-3M (Malme-3M), 16%; in the experiment on UACC-257 (setting [9]), under 10%; in the experiment on UACC-62 (setting [10]), under 10%. Also, the inhibition at 10 µM in the experiment with SK-MEL-2 (setting [11]) was under 10%; with NCI/ADR-RES, under 10%; in the experiment on IGROV1 (setting [12]), 22.4%; with OVCAR-3 (setting [13]), under 10%; in the experiment with OVCAR-8 (setting [14]) it was under 10%; in the experiment with OVCAR-5 (setting [15]), under 10%. Moreover, the inhibition at 10 µM in the experiment with UO-31 (setting [16]) was 21.9%; in the experiment with TK-10 (setting [17]), under 10%; in the experiment with HS 578 T (Hs-578T), under 10%; with T-47D, under 10%.

Turning to `Cc1c(C(=O)N/N=C2\C(=O)Nc3ccc(Br)cc32)oc2ccccc12` [Compound 5c], the inhibition at 10 µM with CCRF-CEM (Leukaemia, single dose 10^−5 M) was under 10%; in the experiment on HL-60(TB) (setting [18]), 21.5%; in the experiment with RPMI-8226, under 10%; in the experiment with SW-620 (setting [19]), 10.6%; in the experiment with HT-29 (setting [20]), under 10%; with KM12 (setting [21]), 20.5%. In addition, the inhibition at 10 µM in the experiment with SF-539 (setting [22]) is 57.9%; with SF-268 (setting [23]), 11.7%; with SF-295 (setting [24]) it was 20.3%; with SNB-19 (setting [25]), 31.5%; in the experiment with MALME-3M (setting [26]) it was 64.9%; in the experiment on UACC-257 (setting [27]), under 10%. The inhibition at 10 µM in the experiment on UACC-62 (setting [28]) is 30.9%; in the experiment on SK-MEL-2 (setting [29]), under 10%; in the experiment with NCI/ADR-RES (setting [30]) it was 29.3%; in the experiment with IGROV1 (setting [31]) it was 44.6%; in the experiment with OVCAR-3 (setting [32]) it was under 10%; in the experiment with OVCAR-8 (setting [33]) it was 22.5%. Also, the inhibition at 10 µM was under 10% in the experiment with OVCAR-5 (setting [34]); 43.4% with UO-31 (setting [35]); under 10% in the experiment with TK-10 (setting [36]); 46.3% in the experiment with HS 578 T (setting [37]); 42.7% with T-47D (setting [38]).

As to `CCCN1C(=O)/C(=N\NC(=O)c2oc3ccccc3c2C)c2ccccc21` [Compound 7b], the inhibition at 10 µM was under 10% with CCRF-CEM; 10.9% with HL-60(TB) (setting [1]); under 10% in the experiment with SW-620 (setting [2]); under 10% with HT-29 (setting [3]); under 10% with KM12 (setting [4]); under 10% with SF-539 (setting [5]). Moreover, the inhibition at 10 µM with SF-268 (setting [6]) was under 10%; in the experiment on SF-295 (setting [7]) it was 11.9%; with SNB-19 (setting [8]), under 10%; with MALME-3M (Malme-3M), under 10%; in the experiment with UACC-257 (setting [9]), under 10%; in the experiment with UACC-62 (setting [10]), 16.9%. The inhibition at 10 µM is under 10% in the experiment on SK-MEL-2 (setting [11]); 10.3% in the experiment on NCI/ADR-RES; 42.5% in the experiment on IGROV1 (setting [12]); under 10% in the experiment with OVCAR-3 (setting [13]); under 10% with OVCAR-8 (setting [14]); under 10% with OVCAR-5 (setting [15]). Besides, the inhibition at 10 µM was 34.3% in the experiment on UO-31 (setting [16]), under 10% in the experiment with TK-10 (setting [17]), under 10% in the experiment on HS 578 T (Hs-578T) and 23.8% with T-47D.

With `COc1ccc2c(c1)/C(=N/NC(=O)c1oc3ccccc3c1C)C(=O)N2` [Compound 5d], the inhibition at 10 µM stood at 42.9% in the experiment on CCRF-CEM (Leukaemia, single dose 10^−5 M); 46.1% in the experiment on HL-60(TB) (setting [1]); 64.8% with SW-620 (setting [19]); 72.7% in the experiment on HT-29 (setting [20]); 56.2% in the experiment on KM12 (setting [21]); 62.6% in the experiment on SF-539 (setting [22]). In addition, the inhibition at 10 µM with SF-268 (setting [23]) came out at 42.3%; in the experiment on SF-295 (setting [24]) it was 95%; in the experiment with SNB-19 (setting [25]), 57.3%; in the experiment on MALME-3M (setting [26]), 129%; in the experiment with UACC-257 (setting [27]) it was 50%; in the experiment on UACC-62 (setting [28]), 65.7%. The inhibition at 10 µM with SK-MEL-2 (setting [29]) came to 29.1%; with NCI/ADR-RES (setting [30]), 69.5%; with IGROV1 (setting [31]), 93.7%; in the experiment with OVCAR-3 (setting [32]), 166%; in the experiment on OVCAR-8 (setting [33]), 62.2%; in the experiment with OVCAR-5 (setting [34]) it was 52.3%. The inhibition at 10 µM was 155% in the experiment on UO-31 (setting [35]), 194% in the experiment with TK-10 (setting [36]), 74.5% in the experiment on HS 578 T (setting [37]) and 139% in the experiment on T-47D (setting [38]).

For the compound `Cc1c(C(=O)N/N=C2\C(=O)N(C)c3ccccc32)oc2ccccc12` [Compound 7a], the inhibition at 10 µM is under 10% in the experiment with CCRF-CEM (Leukaemia, single dose 10^−5 M); under 10% with HL-60(TB) (setting [18]); 30.6% in the experiment on SW-620 (setting [19]); under 10% with HT-29 (setting [20]); under 10% in the experiment on KM12 (setting [21]); under 10% in the experiment on SF-539 (setting [22]). Also, the inhibition at 10 µM with SF-268 (setting [23]) was under 10%; with SF-295 (setting [24]), 11.8%; in the experiment with SNB-19 (setting [25]), under 10%; in the experiment on MALME-3M (setting [26]), under 10%; in the experiment on UACC-257 (setting [27]), under 10%; with UACC-62 (setting [28]), under 10%. The inhibition at 10 µM in the experiment with SK-MEL-2 (setting [29]) is under 10%; in the experiment on NCI/ADR-RES (setting [30]) it was under 10%; in the experiment with IGROV1 (setting [31]), 32.8%; in the experiment on OVCAR-3 (setting [32]), under 10%; with OVCAR-8 (setting [33]), under 10%; in the experiment on OVCAR-5 (setting [34]), under 10%. Further, the inhibition at 10 µM with UO-31 (setting [35]) is under 10%; with TK-10 (setting [36]), under 10%; with HS 578 T (setting [37]), under 10%; in the experiment with T-47D (setting [38]), 21.8%.

Source of the values: publication PMC8245078, “Development of novel benzofuran-isatin conjugates as potential antiproliferative agents with apoptosis inducing mechanism in Colon cancer” (Journal of Enzyme Inhibition and Medicinal Chemistry, 2021).
